A value given as a limit tells only on which side of the number the result lay.

The experiment concerns HIV-1 IIIB (T-tropic, CXCR4 utilizing). Kind of experiment: HOS HIV-1 infectivity assay. As to conditions: Human immunodeficiency virus 1, IIIB; as determined by the infectivity assay; strain not stated in Table 2; read-out: Activity Level. In kind it is cell-based. How it is done: Compounds were profiled against two HIV-1 viruses, the M-tropic (CCR5 utilizing) Ba-L strain and the T-tropic (CXCR4 utilizing) IIIB strain. Both viruses were propagated in human peripheral blood lymphocytes. Compounds were tested for there ability to block infection of the HOS cell line (expressing hCXCR4/hCCR5/hCD4/pHIV-LTR-luciferase) by either HIV-1 Ba-L or HIV-1 IIIB. Compound cytotoxicity was also examined in the absence of virus addition.
HOS cells (expressing hCXCR4/hCCR5/hCD4/pHIV-LTR-luciferase) were harvested and diluted in Dulbeccos modified Eagles media supplemented with 2% FCS and non-essential amino acid to a concentration of 60,000 cells/ml. The cells were plated into 96-well plates (100 ul per well) and the plates were placed in a tissue culture incubator (37° C.; 5% CO2/95% air) for a period of 24 h.
Subsequently, 50 ul of the desired drug solution (4 times the final concentration) was added to each well and the plates were returned to the tissue culture incubator (37° C.; 5% CO2/95% air) for 1 h. Following this incubation 50 ul of diluted virus was added to each well (approximately 2 million RLU per well of virus). The plates were returned to the tissue culture incubator (37° C.; 5% CO2/95% air) and were incubated for a further 96 h.
Following this incubation the endpoint for the virally infected cultures was quantified following addition of Steady-Glo Luciferase assay system reagent (Promega, Madison, Wis.). Cell viability or non-infected cultures was measured using a CellTiter-Glo luminescent cell viability assay system (Promega, Madison, Wis.). All luminescent readouts are performed on a Topcount luminescence detector (Packard, Meridien, Conn.).
Turning to `CN(Cc1nc2c(CCCN)cccc2[nH]1)C1CCCc2cccnc21` (centres unmarked) [Example 97, N-{[4-(3-aminopropyl)-1H-benzimidazol-2-yl]methyl}-N-methyl-5,6,7,8-tetrahydro-8-quinolinamine], the IC50 is less than 0.1 µM.

On to `CN(Cc1nc2c(NC(=O)CN)cccc2[nH]1)C1CCCc2cccnc21` (centres unmarked) [Example 99, N^1-(2-{[methyl(5,6,7,8-tetrahydro-8-quinolinyl)amino]methyl}-1H-benzimidazol-4-yl)glycinamide], for which the IC50 was 0.1 to 0.5 µM.

For `CN(Cc1nc2c(NC(=O)CCN3CCCCC3)cccc2[nH]1)C1CCCc2cccnc21` (centres unmarked) [Example 100, N-(2-{[methyl(5,6,7,8-tetrahydro-8-quinolinyl)amino]methyl}-1H-benzimidazol-4-yl)-3-(1-piperidinyl)propanamide], the IC50 is 0.1 to 0.5 µM.

Regarding `CN(Cc1nc2c(-n3ccnc3)cccc2[nH]1)C1CCCc2cccnc21` (centres unmarked) [Example 101, N-{[4-(1H-Imidazol-1-yl)-1H-benzimidazol-2-yl]methyl}-N-methyl-5,6,7,8-tetrahydro-8-quinolinamine], the IC50 lay in the range of 0.1 to 0.5 µM.

Regarding `CN(Cc1nc2c(NC(=O)c3cccnc3)cccc2[nH]1)C1CCCc2cccnc21` (centres unmarked) [Example 102, N-(2-{[Methyl(5,6,7,8-tetrahydro-8-quinolinyl)amino]methyl}-1H-benzimidazol-4-yl)-3-pyridinecarboxamide], the IC50 fell in the range of 0.1 to 0.5 µM.

In the case of `CN(Cc1nc2c(NC(=O)c3ccncc3)cccc2[nH]1)C1CCCc2cccnc21` (centres unmarked) [Example 103, N-(2-{[Methyl(5,6,7,8-tetrahydro-8-quinolinyl)amino]methyl}-1H-benzimidazol-4-yl)-4-pyridinecarboxamide], the IC50 fell in the range of 0.5 to 10 µM.

For `CN(Cc1nc2c(NC(=O)[C@@H]3CCCN3C)cccc2[nH]1)C1CCCc2cccnc21` (stereo partly drawn) [Example 104, 1-Methyl-N-(2-{[methyl(5,6,7,8-tetrahydro-8-quinolinyl)amino]methyl}-1H-benzimidazol-4-yl)-L-prolinamide], the IC50 lay in the range of 0.1 to 0.5 µM.

For the molecule `CN(Cc1nc2c(NC(=O)C(C)(C)N)cccc2[nH]1)C1CCCc2cccnc21` (centres unmarked) [Example 105, 2-Methyl-N-1-(2-{[methyl(5,6,7,8-tetrahydro-8-quinolinyl)amino]methyl}-1H-benzimidazol-4-yl)alaninamide], the IC50 lay in the range of 0.1 to 0.5 µM.

In the case of `CN(C)CCCNc1cccc2[nH]c(CN(C)C3CCCc4cccnc43)nc12` (centres unmarked) [Example 106, [3-(Dimethylamino)propyl](2-{[methyl(5,6,7,8-tetrahydro-8-quinolinyl)amino]methyl}-1H-benzimidazol-4-yl)amine], the IC50 fell in the range of 0.1 to 0.5 µM.

With `CN(C)CCNc1cccc2[nH]c(CN(C)C3CCCc4cccnc43)nc12` (centres unmarked) [Example 107, [2-(Dimethylamino)ethyl](2-{[methyl(5,6,7,8-tetrahydro-8-quinolinyl)amino]methyl}-1H-benzimidazol-4-yl)amine], the IC50 was less than 0.1 µM.

Take `CNCCN(C)c1cccc2[nH]c(CN(C)C3CCCc4cccnc43)nc12` (centres unmarked) [Example 108, Methyl[2-(methylamino)ethyl](2-{[methyl(5,6,7,8-tetrahydro-8-quinolinyl)amino]methyl}-1H-benzimidazol-4-yl)amine]: the IC50 is less than 0.1 µM.

In the case of `CN(C)CCN(C)c1cccc2[nH]c(CN(C)C3CCCc4cccnc43)nc12` (centres unmarked) [Example 109, [2-(Dimethylamino)ethyl]methyl(2-{[methyl(5,6,7,8-tetrahydro-8-quinolinyl)amino]methyl}-1H-benzimidazol-4-yl)amine], the IC50 was less than 0.1 µM.

Turning to `CC(=O)N1CCN(c2cccc3[nH]c(CN(C)C4CCCc5cccnc54)nc23)CC1` (centres unmarked) [Example 110, N-{[4-(4-Acetyl-1-piperazinyl)-1H-benzimidazol-2-yl]methyl}-N-methyl-5,6,7,8-tetrahydro-8-quinolinamine], the IC50 lay in the range of 0.1 to 0.5 µM.

As to `CC(C)N1CCN(c2cccc3[nH]c(CN(C)C4CCCc5cccnc54)nc23)CC1` (centres unmarked) [Example 111, N-Methyl-N-({4-[4-(1-methylethyl)-1piperazinyl]-1H-benzimidazol-2-yl}methyl)-5,6,7,8-tetrahydro-8-quinolinamine], the IC50 was less than 0.1 µM.

Consider `CC(C)N(Cc1nc2c(N3CCN(C)CC3)cccc2[nH]1)C1CCCc2cccnc21` (centres unmarked) [Example 112, N-(1-Methylethyl)-N-{[4-(4-methyl-1-piperazinyl)-1H-benzimidazol-2-yl]methyl}-5,6,7,8-tetrahydro-8-quinolinamine], for which the IC50 was less than 0.1 µM.

With `CC(C)N1CCN(c2cccc3[nH]c(CN(C(C)C)C4CCCc5cccnc54)nc23)CC1` (centres unmarked) [Example 113, N-(1-methylethyl)-N-({4-[4-(1-methylethyl)-piperazinyl]-1H-benzimidazol-2-yl}methyl)-5,6,7,8-tetrahydro-8-quinolinamine], the IC50 was less than 0.1 µM.

For the molecule `CN1CCN(c2cccc3nc(C(C)(C)NC4CCCc5cccnc54)[nH]c23)CC1` (centres unmarked) [Example 114, N-{1-methyl-1-[4-(4-methyl-1-piperazinyl)-1H-benzimidazol-2-yl]ethyl}-5,6,7,8-tetrahydro-8-quinolinamine], the IC50 is less than 0.1 µM.

With `CN1CCN(c2cccc3nc(C(C)(C)N(C)C4CCCc5cccnc54)[nH]c23)CC1` (centres unmarked) [Example 115, N-Methyl-N-{1-methyl-1-[4-(4-methyl-1-piperazinyl)-1H-benzimidazol-2-yl]ethyl}-5,6,7,8-tetrahydro-8-quinolinamine], the IC50 was less than 0.1 µM.

Consider `CN(Cc1nc2c(N3CCN(C(=O)CN)CC3)cccc2[nH]1)C1CCCc2cccnc21` (centres unmarked) [Example 116, N-({4-[4-(Aminoacetyl)-1-piperazinyl]-1H-benzimidazol-2-yl}methyl)-N-methyl-5,6,7,8-tetrahydro-8-quinolinamine], for which the IC50 was less than 0.1 µM.

In the case of `CN(Cc1nc2c(N3CCN(C(=O)c4ccccn4)CC3)cccc2[nH]1)C1CCCc2cccnc21` (centres unmarked) [Example 117, N-Methyl-N-({4-[4-(2-pyridinylcarbonyl)-1-piperazinyl]-1H-benzimidazol-2-yl}methyl)-5,6,7,8-tetrahydro-8-quinolinamine], the IC50 was 0.1 to 0.5 µM.

For the molecule `CN1CCN(c2cccc3nc(CN(C)[C@@H]4CCCc5cccnc54)[nH]c23)CC1` [Example 133A, (8R)—N-Methyl-N-{[4-(4-methyl-1-piperazinyl)-1H-benzimidazol-2-yl]methyl}-5,6,7,8-tetrahydro-8-quinolinamine], the IC50 was less than 0.1 µM.

As for `CN1CCN(c2cccc3nc(CN(C)[C@H]4CCCc5cccnc54)[nH]c23)CC1` [Example 133B, (8S)—N-Methyl-N-{[4-(4-methyl-1-piperazinyl)-1H-benzimidazol-2-yl]methyl}-5,6,7,8-tetrahydro-8-quinolinamine], the IC50 was less than 0.1 µM.

Regarding `CCN(Cc1nc2cccc(N3CCN(C)CC3)c2[nH]1)[C@@H]1CCCc2cccnc21` [Example 134, (8R)—N-Ethyl-N-{[4-(4-methyl-1-piperazinyl)-1H-benzimidazol-2-yl]methyl}-5,6,7,8-tetrahydro-8-quinolinamine], the IC50 was less than 0.1 µM.

Take `CCN(Cc1nc2cccc(N3CCN(C)CC3)c2[nH]1)[C@H]1CCCc2cccnc21` [Example 135, (8S)—N-Ethyl-N-{[4-(4-methyl-1-piperazinyl)-1H-benzimidazol-2-yl]methyl}-5,6,7,8-tetrahydro-8-quinolinamine]: the IC50 was less than 0.1 µM.

In the case of `CCCN(Cc1nc2cccc(N3CCN(C)CC3)c2[nH]1)[C@@H]1CCCc2cccnc21` [Example 136, (8R)—N-{[4-(4-methyl-1-piperazinyl)-1H-benzimidazol-2-yl]methyl}-N-propyl-5,6,7,8-tetrahydro-8-quinolinamine], the IC50 is less than 0.1 µM.

For the molecule `CCCN(Cc1nc2cccc(N3CCN(C)CC3)c2[nH]1)[C@H]1CCCc2cccnc21` [Example 137, (8S)—N-{[4-(4-methyl-1-piperazinyl)-1H-benzimidazol-2-yl]methyl}-N-propyl-5,6,7,8-tetrahydro-8-quinolinamine], the IC50 is less than 0.1 µM.

Regarding `CC(C)N(Cc1nc2cccc(N3CCN(C)CC3)c2[nH]1)[C@H]1CCCc2cccnc21` [Example 138, (8S)—N-(1-Methylethyl)-N-{[4-(4-methyl-1-piperazinyl)-1H-benzimidazol-2-yl]methyl}-5,6,7,8-tetrahydro-8-quinolinamine], the IC50 is less than 0.1 µM.

Turning to `CN1CCN(c2cccc3nc(CN(CC4CC4)[C@@H]4CCCc5cccnc54)[nH]c23)CC1` [Example 139, (8R)—N-(Cyclopropylmethyl)-N-{[4-(4-methyl-1-piperazinyl)-1H-benzimidazol-2-yl]methyl}-5,6,7,8-tetrahydro-8-quinolinamine], the IC50 is less than 0.1 µM.

For `CN1CCN(c2cccc3nc(CN(CC4CC4)[C@H]4CCCc5cccnc54)[nH]c23)CC1` [Example 140, (8S)—N-(Cyclopropylmethyl)-N-{[4-(4-methyl-1-piperazinyl)-1H-benzimidazol-2-yl]methyl}-5,6,7,8-tetrahydro-8-quinolinamine], the IC50 is less than 0.1 µM.

The record behind these values is patent US20080045537A1, “Chemical Compounds” (priority 2004, published 2008).
